Assay results from paper PMC10584170, “Machine learning-based phenotypic imaging to characterise the targetable biology of Plasmodium falciparum male gametocytes for the development of transmission-blocking antimalarials” (PLOS Pathogens, 2023).

Key:
[1] = system: P. falciparum male gametocytes; assay: P. falciparum Dual Gamete Formation Assay (PfDGFA), male readout (exflagellation); assay type: cell-based, Plasmodium falciparum NF54; settings: for % inhibition male (individual replicates) R1: replicate R1; for % inhibition male (individual replicates) R3: replicate R3; for % inhibition male (individual replicates) R4: replicate R4; for Average inhibition male (%): average of replicates; for Activity: hit = >50% inhibition in male or female readout in at least 3 replicates, 0 = no class assigned
Method: (§1) P. falciparum NF54 (originally isolated from an imported malaria case in the Netherlands in the 1980s; BEI Resources, cat. No. MRA-1000) strain asexual parasites were maintained between 0.3–5% parasitaemia by regular passage in complete culture medium (RPMI supplemented with 25 mM HEPES, 50 μg ml^−1 hypoxanthine, 4.8 g l^−1 NaHCO3, 2mM L-glutamine, 5% pooled type AB serum, 0.5% Albumax II (Gibco)) at 4% haematocrit in washed whole blood (National Blood and Transfusion Service or Centro de Transfusiones de la Comunidad de Madrid CTCM) under a 1% O2/3% CO2/96% N2 environment. Gametocytes were induced by seeding culture flasks at 2% parasitaemia/4% haematocrit and subjecting them to daily medium changes for 14 days whilst maintaining a temperature of 37°C at all times. On Day 14, the maturity of gametocytes was assessed by quantifying male gametogenesis (exflagellation). A 20 μl sample of gametocyte culture was mixed with equal volume of ookinete medium (complete culture medium supplemented with 0.1 μM xanthurenic acid) at room temperature and transferred to a haemocytometer. After 20 min at room temperature, exflagellation was accurately quantified as described in Delves et al. 2016 [17].
(§2) The Pf DGFA was performed as described in Delves et al. 2016 [17]. […] Plates were then incubated for 24 h at 37°C in a humidified box under a 1% O2/3% CO2/96% N2 gas mix. Gametogenesis was triggered by addition of 10 μl per well of ookinete medium + 0.27 μg ml^-1 Cy3-labelled anti-Pfs25 antibody. Plates were incubated on a metal block at 4°C for 4 min to ensure even cooling, then 28°C for a further 4 min. Exflagellation was recorded by capturing 10 frames over 1 s under brightfield illumination using a x4 objective with a 1.5x zoom (effectively x6) attached to an automated Nikon Ti fluorescence microscope. After recording exflagellation, plates were incubated for a further 24 h in the dark at 28°C to ensure maximal expression of Pfs25 by female gametes. The plates were then returned to the microscope and female gametes imaged at x6 using fluorescence microscopy.
(§3) Exflagellation centres and female gametes were quantified using custom image analysis pipelines developed within ICY Bioimage Analysis (https://icy.bioimageanalysis.org/).

[2] = system: P. falciparum female gametocytes; assay: P. falciparum Dual Gamete Formation Assay (PfDGFA), female readout (Pfs25-positive female gametes); assay type: cell-based, Plasmodium falciparum NF54; settings: for % inhibition female (individual replicates) R1: replicate R1; for % inhibition female (individual replicates) R3: replicate R3; for % inhibition female (individual replicates) R4: replicate R4; for Average inhibition female (%): average of replicates
Method: as §1, §2, §3

[3] = PfDGFA at 2µM, 24h preincubation with gametocytes prior to induction of gametogenesis
[4] = PfDGFA at 2µM, 24h preincubation
[5] = 2µM, 24h preincubation with gametocytes prior to induction of gametogenesis
[6] = 2µM, 24h preincubation, number of replicates with >50% inhibition in the male readout
[7] = 2µM, 24h preincubation, number of replicates with >50% inhibition in the female readout
[8] = 2µM, 24h preincubation, hits selected on >50% inhibition in the male readout across replicates
[9] = 2µM, 24h preincubation, hits selected on >50% inhibition in the female readout across replicates
[10] = PfDGFA at 2µM, 24h preincubation with gametocytes
[11] = number of replicates with >50% inhibition in the male readout, 2µM
[12] = number of replicates with >50% inhibition in the female readout, 2µM
[13] = 2µM, 24h preincubation with gametocytes

SMILES | Average inhibition male (%) [1, 5] | % inhibition male (individual replicates) R1 [1, 5] | % inhibition male (individual replicates) R3 [1, 5] | % inhibition male (individual replicates) R4 [1, 5] | HitlevelM [1, 6] | Average inhibition female (%) [2, 5] | % inhibition female (individual replicates) R1 [2, 5] | % inhibition female (individual replicates) R3 [2, 5] | % inhibition female (individual replicates) R4 [2, 5] | HitlevelF [2, 7] | other results
COc1ccc(C2CC(c3cccs3)=NN2C(=O)c2ccccc2)cc1OC (stereo not drawn) [TCMDC-123755] |  |  |  |  |  |  |  |  |  |  | % inhibition male (individual replicates) R1 [1, 3]: -16.5%; % inhibition male (individual replicates) R3 [1, 3]: -10.3%; % inhibition male (individual replicates) R4 [1, 3]: 27.6%; Average inhibition male (%) [1, 4]: 0.438%; % inhibition female (individual replicates) R1 [2, 3]: 2.3%; % inhibition female (individual replicates) R3 [2, 3]: -20.6%; % inhibition female (individual replicates) R4 [2, 3]: -7.2%; Average inhibition female (%) [2, 4]: -3.5%
COc1ccc(CNCc2ccc(F)cc2)cc1-c1cccc(S(=O)(=O)NCCN2CCCC2)c1.O=C(O)C(F)(F)F [TCMDC-132223] | -1.9% | -0.6% | 2.2% | -9.8% | 0 | 23.7% | 23.5% | 4.6% | 54.2% | 1 | 
Cc1cccc2nc(-c3ccc(-c4cccc(CNC5CCN(C)CC5)c4)s3)[nH]c12.O=C(O)C(F)(F)F [TCMDC-132736] | 63.8% | 48.5% |  | 67.2% |  | 18.0% | 17.1% | 23.2% | 22.3% |  | HitlevelM [1, 8]: 2; Activity [1, 4]: 0; HitlevelF [2, 9]: 0
Cl.Clc1ccc(C2CCN(CCCOc3ccc4c(c3)CCNCC4)CC2)cc1 [TCMDC-141782] | 47.0% | 45.1% | 27.8% | 64.2% | 2 | 28.4% | 14.5% | 2.3% | 70.0% | 1 | 
COc1cc2ccccc2cc1CNCCCCCCNCc1cc2ccccc2cc1OC.CS(=O)(=O)O [TCMDC-137955] | 53.1% | 58.5% | -7.9% | 78.9% | 3 | 14.7% | 13.5% | -9.9% | 5.4% | 0 | 
CCCN(CCC)CCCN(CCCN(CCC)CCC)c1cc(C)nc(Nc2ccc3cc(Br)ccc3c2)n1.Cl [TCMDC-138006] |  |  |  |  |  |  |  |  |  |  | Average inhibition male (%) [1, 10]: 65.9%; % inhibition male (individual replicates) R1 [1, 10]: 64.4%; % inhibition male (individual replicates) R3 [1, 10]: 70.2%; % inhibition male (individual replicates) R4 [1, 10]: 75.1%; HitlevelM [1, 11]: 4; Average inhibition female (%) [2, 10]: 38.7%; % inhibition female (individual replicates) R1 [2, 10]: 42.6%; % inhibition female (individual replicates) R3 [2, 10]: 25.8%; % inhibition female (individual replicates) R4 [2, 10]: 40.6%; HitlevelF [2, 12]: 0
CC(CNC(=N)c1cccc(C(=N)NCC(C)Oc2cccc(C3CCCCC3)c2)n1)Oc1cccc(C2CCCCC2)c1.Cl (stereo not drawn) [TCMDC-137455] |  |  |  |  |  |  |  |  |  |  | Average inhibition male (%) [1, 10]: 81.3%; % inhibition male (individual replicates) R1 [1, 10]: 90.7%; % inhibition male (individual replicates) R3 [1, 10]: 87.0%; % inhibition male (individual replicates) R4 [1, 10]: 101.3%; HitlevelM [1, 11]: 3; Average inhibition female (%) [2, 10]: 40.6%; % inhibition female (individual replicates) R1 [2, 10]: 53.6%; % inhibition female (individual replicates) R3 [2, 10]: 30.8%; % inhibition female (individual replicates) R4 [2, 10]: 44.6%; HitlevelF [2, 12]: 1
CCCCOc1cc(CNCCCCCCNCc2cc(OCCCC)cc3ccccc23)c2ccccc2c1.CS(=O)(=O)O [TCMDC-137824] | 32.5% | 29.7% | -0.8% | 46.2% | 1 | 23.5% | 22.5% | 5.4% | 30.9% | 0 | 
Br.CCCC1N=C(N)N=C(N)N1c1ccc(CC)cc1 (stereo not drawn) [TCMDC-131300] | -2.2% | 7.1% | 2.2% | -35.1% |  | 5.7% | 16.1% | 10.4% | 12.0% |  | HitlevelM [1, 8]: 0; Activity [1, 4]: 0; HitlevelF [2, 9]: 0
CCCCCCCN1CC[C@@H](CCCc2ccnc3ccc(OC)cc23)[C@@H](CCN)C1.O=C(O)C(=O)O [TCMDC-139278] | 60.9% | 62.0% |  | 48.5% |  | 13.3% | 23.8% | -1.7% | 20.4% |  | HitlevelM [1, 8]: 2; Activity [1, 4]: 0; HitlevelF [2, 9]: 0
Cc1ccc2nc(C)cc(N/N=C/c3ccc([N+](=O)[O-])cc3)c2c1 [TCMDC-142070] |  |  |  |  |  |  |  |  |  |  | % inhibition male (individual replicates) R1 [1, 3]: -12.6%; % inhibition male (individual replicates) R3 [1, 3]: -7.9%; % inhibition male (individual replicates) R4 [1, 3]: 12.9%; Average inhibition male (%) [1, 4]: -0.848%; % inhibition female (individual replicates) R1 [2, 3]: 9.6%; % inhibition female (individual replicates) R3 [2, 3]: -4.2%; % inhibition female (individual replicates) R4 [2, 3]: -9.4%; Average inhibition female (%) [2, 4]: 1.3%
CCCN1CCN(CCNc2c3ccccc3nc3ccccc23)CC1 [TCMDC-137549] |  |  |  |  |  |  |  |  |  |  | Average inhibition male (%) [1, 13]: 95.7%; % inhibition male (individual replicates) R1 [1, 13]: 96.4%; % inhibition male (individual replicates) R3 [1, 13]: 92.4%; % inhibition male (individual replicates) R4 [1, 13]: 99.6%; Average inhibition female (%) [2, 13]: 13.4%; % inhibition female (individual replicates) R1 [2, 13]: 14.9%; % inhibition female (individual replicates) R3 [2, 13]: 20.2%; % inhibition female (individual replicates) R4 [2, 13]: 28.7%
COCCOc1nc(N)nc2ncc(Cc3cc(OC)ccc3OC)c(C)c12 [TCMDC-137754] |  |  |  |  |  |  |  |  |  |  | % inhibition male (individual replicates) R1 [1, 3]: 18.4%; % inhibition male (individual replicates) R3 [1, 3]: 27.4%; % inhibition male (individual replicates) R4 [1, 3]: 26.2%; Average inhibition male (%) [1, 4]: 25.9%; % inhibition female (individual replicates) R1 [2, 3]: 1.5%; % inhibition female (individual replicates) R3 [2, 3]: -13.9%; % inhibition female (individual replicates) R4 [2, 3]: 2.0%; Average inhibition female (%) [2, 4]: -4.6%
COc1cccc(OC)c1CN1CCC(N(C)CCCCCCCCN2CCC(OC(=O)Nc3ccccc3-c3ccccc3)CC2)CC1 [TCMDC-134684] | 52.6% | 48.0% | 25.4% | 71.6% | 2 | 31.6% | 24.1% | 24.2% | 37.8% | 0 | 
O=C(Nc1ccc([N+](=O)[O-])cc1)c1nn(-c2ccccc2)cc1/N=C/c1cccc(O)c1 [TCMDC-124108] |  |  |  |  |  |  |  |  |  |  | % inhibition male (individual replicates) R1 [1, 3]: -5.9%; % inhibition male (individual replicates) R3 [1, 3]: -27.6%; % inhibition male (individual replicates) R4 [1, 3]: -9.8%; Average inhibition male (%) [1, 4]: -10.2%; % inhibition female (individual replicates) R1 [2, 3]: 7.8%; % inhibition female (individual replicates) R3 [2, 3]: -29.5%; % inhibition female (individual replicates) R4 [2, 3]: -3.2%; Average inhibition female (%) [2, 4]: -2.4%
